Data published in patent US8148391B2 (Cephalon, Inc., priority 2006, dated 2012).
pIC50: −log10 of the molar value.

Tests used:
[1] = molecular target: T1, c-Met (cytoplasmic domain) (Homo sapiens, UniProt P08581); assay: c-Met Kinase Assay (same methods as for ALK, with modifications); format: biochemical; conditions: c-Met kinase inhibition, 1 μM ATP; read-out: cMet Activity
T1 construct: 10 ng/mL c-Met (cytoplasmic domain, Invitrogen Corporation #PV3143); purchased Invitrogen Corporation PV3143
T1 sequence (P08581 956-1390 limits assumed): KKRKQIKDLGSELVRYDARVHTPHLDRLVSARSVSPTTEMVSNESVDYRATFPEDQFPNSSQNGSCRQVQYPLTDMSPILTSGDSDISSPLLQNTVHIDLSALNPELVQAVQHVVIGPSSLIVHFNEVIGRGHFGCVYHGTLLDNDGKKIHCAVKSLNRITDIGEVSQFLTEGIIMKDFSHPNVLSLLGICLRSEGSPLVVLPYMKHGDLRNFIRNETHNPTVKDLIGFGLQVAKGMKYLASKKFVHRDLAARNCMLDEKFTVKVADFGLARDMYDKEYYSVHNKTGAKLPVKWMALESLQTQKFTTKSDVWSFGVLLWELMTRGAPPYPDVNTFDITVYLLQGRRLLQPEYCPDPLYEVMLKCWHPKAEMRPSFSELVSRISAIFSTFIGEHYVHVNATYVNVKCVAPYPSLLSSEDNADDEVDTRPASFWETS
Summary of the method: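 This plate-based kinase format uses immobilized phospholipase C-γ as substrate, phosphorylated by c-Met cytoplasmic domain (10 ng/mL) at 37° C for 15 minutes.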

[2] = molecular target: T2, baculovirus-expressed ALK (Homo sapiens, UniProt Q9UM73); assay: ALK Kinase Assay (ELISA-type, time-resolved fluorescence); format: biochemical; conditions: ALK kinase inhibition, 1 μM ATP; read-out: ALK Activity
T2 construct: host or cells: baculovirus expression system
T2 sequence (Q9UM73 19-1620): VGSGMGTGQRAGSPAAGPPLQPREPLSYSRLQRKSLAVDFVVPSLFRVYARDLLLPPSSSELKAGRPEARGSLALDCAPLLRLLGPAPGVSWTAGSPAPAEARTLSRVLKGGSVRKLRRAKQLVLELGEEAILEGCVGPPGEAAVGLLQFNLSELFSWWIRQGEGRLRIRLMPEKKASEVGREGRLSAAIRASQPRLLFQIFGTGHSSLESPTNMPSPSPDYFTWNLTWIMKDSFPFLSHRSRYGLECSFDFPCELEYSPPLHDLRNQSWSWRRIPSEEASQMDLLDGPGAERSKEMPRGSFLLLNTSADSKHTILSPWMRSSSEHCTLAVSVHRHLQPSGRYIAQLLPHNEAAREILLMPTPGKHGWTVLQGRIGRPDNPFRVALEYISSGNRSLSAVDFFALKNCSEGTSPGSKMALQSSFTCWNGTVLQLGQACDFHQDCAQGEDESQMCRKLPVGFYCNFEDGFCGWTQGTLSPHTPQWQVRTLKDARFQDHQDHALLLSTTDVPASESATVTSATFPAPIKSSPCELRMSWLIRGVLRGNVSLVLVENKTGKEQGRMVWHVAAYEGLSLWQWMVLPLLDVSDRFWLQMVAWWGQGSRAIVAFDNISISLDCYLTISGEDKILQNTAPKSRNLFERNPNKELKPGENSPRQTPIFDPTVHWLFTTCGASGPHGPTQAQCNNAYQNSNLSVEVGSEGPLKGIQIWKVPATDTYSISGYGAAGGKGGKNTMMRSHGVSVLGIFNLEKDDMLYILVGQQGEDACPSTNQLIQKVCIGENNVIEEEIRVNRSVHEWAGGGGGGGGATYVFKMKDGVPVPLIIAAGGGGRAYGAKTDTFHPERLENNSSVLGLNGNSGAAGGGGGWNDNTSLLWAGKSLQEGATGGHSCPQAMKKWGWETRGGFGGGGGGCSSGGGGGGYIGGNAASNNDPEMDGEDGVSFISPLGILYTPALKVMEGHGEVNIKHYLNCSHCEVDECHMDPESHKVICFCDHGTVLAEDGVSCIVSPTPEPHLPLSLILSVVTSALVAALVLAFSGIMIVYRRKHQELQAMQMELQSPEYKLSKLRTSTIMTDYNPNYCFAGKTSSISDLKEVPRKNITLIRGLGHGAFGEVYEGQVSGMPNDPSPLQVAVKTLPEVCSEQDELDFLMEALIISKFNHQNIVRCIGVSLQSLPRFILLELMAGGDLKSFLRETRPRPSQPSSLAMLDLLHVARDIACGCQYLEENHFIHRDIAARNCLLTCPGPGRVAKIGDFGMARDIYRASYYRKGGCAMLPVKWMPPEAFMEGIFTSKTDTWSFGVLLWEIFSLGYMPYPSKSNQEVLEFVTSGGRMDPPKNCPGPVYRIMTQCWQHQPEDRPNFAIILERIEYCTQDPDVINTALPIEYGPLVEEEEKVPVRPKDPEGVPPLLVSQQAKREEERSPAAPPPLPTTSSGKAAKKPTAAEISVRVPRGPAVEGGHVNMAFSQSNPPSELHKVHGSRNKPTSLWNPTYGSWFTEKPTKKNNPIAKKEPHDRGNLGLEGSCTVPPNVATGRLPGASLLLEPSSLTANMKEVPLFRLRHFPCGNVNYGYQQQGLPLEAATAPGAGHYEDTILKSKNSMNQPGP
Summary of the method: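 Substrate coating: phospholipase C-γ, 10 μg/mL in TBS. Kinase step: 30 ng/ml ALK, 15 min, 37° C. Detection and analysis: Eu-N1 PT66 antibody, with IC50 fitted as a sigmoidal variable-slope dose-response curve.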

Compound	pIC50 [1]	pIC50 [2]
CC(C)[C@H](Nc1nc(Nc2ccc3c(c2)CC(=O)N(C)CC3)ncc1Cl)C(N)=O [Example 1823, (S)-2-[5-Chloro-2-(3-methyl-4-oxo-2,3,4,5-tetrahydro-1H-benzo[d]azepin-7-ylamino)-pyrimidin-4-ylamino]-3-methyl-butyramide]	< 5.00	5.00 to 6.00
CNC(=O)c1ccccc1N(C)c1nc(Nc2ccc3c(c2)CC(=O)N(C)CC3)ncc1F [Example 1824, 2-{[5-Fluoro-2-(3-methyl-4-oxo-2,3,4,5-tetrahydro-1H-benzo[d]azepin-7-ylamino)-pyrimidin-4-yl]-methyl-amino}-N-methyl-benzamide]	< 5.00	5.00 to 6.00
CN1CCc2ccc(Nc3ncc(Cl)c(Nc4ccccc4-c4cc[nH]n4)n3)cc2CC1=O [Example 1825, 8-{5-Chloro-4-[2-(1H-pyrazol-3-yl)-phenylamino]-pyrimidin-2-ylamino}-3-methyl-1,3,4,5-tetrahydro-benzo[d]azepin-2-one]	< 5.00	< 5.00
CNC(=O)c1cccc(F)c1Nc1nc(Nc2ccc3c(c2)CCC(=O)NC3(C)C)ncc1Cl [Example 1826, 2-(5-Chloro-2-(1,1-dimethyl-3-oxo-2,3,4,5-tetrahydro-1H-benzo[c]azepin-7-ylamino)pyrimidin-4-ylamino)-3-fluoro-N-methylbenzamide]	5.00 to 6.00	5.00 to 6.00
CNC(=O)c1ccccc1Nc1nc(Nc2ccc3c(c2)CCC(=O)NC3(C)C)ncc1Cl [Example 1827, 2-(5-Chloro-2-(1,1-dimethyl-3-oxo-2,3,4,5-tetrahydro-1H-benzo[c]azepin-7-ylamino)pyrimidin-4-ylamino)-N-methylbenzamide]	> 7.00	> 7.00
CNC(=O)c1cccc(Cl)c1Nc1nc(Nc2ccc3c(c2)CCC(=O)NC3(C)C)ncc1Cl [Example 1828, 3-Chloro-2-(5-chloro-2-(1,1-dimethyl-3-oxo-2,3,4,5-tetrahydro-1H-benzo[c]azepin-7-ylamino)pyrimidin-4-ylamino)-N-methylbenzamide]	> 7.00	> 7.00
CNC(=O)c1scc(C)c1Nc1nc(Nc2ccc3c(c2)CCC(=O)NC3(C)C)ncc1Cl [Example 1829]	> 7.00	5.00 to 6.00
CNC(=O)c1cccc(C)c1Nc1nc(Nc2ccc3c(c2)CCC(=O)NC3(C)C)ncc1Cl [Example 1830, 2-(5-Chloro-2-(1,1-dimethyl-3-oxo-2,3,4,5-tetrahydro-1H-benzo[c]azepin-7-ylamino)pyrimidin-4-ylamino)-N,3-dimethylbenzamide]	> 7.00	5.00 to 6.00
CNC(=O)c1cccc(F)c1Nc1nc(Nc2ccc3c(c2)C(C)(C)NC(=O)CC3)ncc1Cl [Example 1831, 2-(5-Chloro-2-(1,1-dimethyl-3-oxo-2,3,4,5-tetrahydro-1H-benzo[c]azepin-8-ylamino)pyrimidin-4-ylamino)-3-fluoro-N-methylbenzamide]	> 7.00	5.00 to 6.00
CC1(C)NC(=O)CCc2ccc(Nc3ncc(Cl)c(NC4C5C=CC(C5)C4C(N)=O)n3)cc21 (centres unmarked) [Example 1832, 3-(5-Chloro-2-(1,1-dimethyl-3-oxo-2,3,4,5-tetrahydro-1H-benzo[c]azepin-8-ylamino)pyrimidin-4-ylamino)bicyclo[2.2.1]hept-5-ene-2-carboxamide]	> 7.00	> 7.00
CNC(=O)c1ccccc1Nc1nc(Nc2ccc3c(c2)C(C)(C)NC(=O)CC3)ncc1Cl [Example 1833, 2-(5-Chloro-2-(1,1-dimethyl-3-oxo-2,3,4,5-tetrahydro-1H-benzo[c]azepin-8-ylamino)pyrimidin-4-ylamino)-N-methylbenzamide]	6.00 to 7.00	> 7.00
CNC(=O)c1cccc(Cl)c1Nc1nc(Nc2ccc3c(c2)C(C)(C)NC(=O)CC3)ncc1Cl [Example 1834, 3-Chloro-2-(5-chloro-2-(1,1-dimethyl-3-oxo-2,3,4,5-tetrahydro-1H-benzo[c]azepin-8-ylamino)pyrimidin-4-ylamino)-N-methylbenzamide]	> 7.00	> 7.00
CNC(=O)c1scc(C)c1Nc1nc(Nc2ccc3c(c2)C(C)(C)NC(=O)CC3)ncc1Cl [Example 1835, 3-(5-Chloro-2-(1,1-dimethyl-3-oxo-2,3,4,5-tetrahydro-1H-benzo[c]azepin-8-ylamino)pyrimidin-4-ylamino)-N,4-dimethylthiophene-2-carboxamide]	> 7.00	6.00 to 7.00
CNC(=O)c1ccccc1Nc1nc(Nc2ccc3c(c2)-n2ccnc2CCC3)ncc1Cl [Example 1836, 2-[5-Chloro-2-(5,6-dihydro-4H-3,10b-diaza-benzo[e]azulen-9-ylamino)-pyrimidin-4-ylamino]-N-methyl-benzamide]	> 7.00	6.00 to 7.00
CNC(=O)c1cccc(F)c1Nc1nc(Nc2ccc3c(c2)-n2ccnc2CCC3)ncc1Cl [Example 1837, 2-[5-Chloro-2-(5,6-dihydro-4H-3,10b-diaza-benzo[e]azulen-9-ylamino)-pyrimidin-4-ylamino]-3-fluoro-N-methyl-benzamide]	> 7.00	> 7.00
CNC(=O)c1scc(C)c1Nc1nc(Nc2ccc3c(c2)-n2ccnc2CCC3)ncc1Cl [Example 1838, 3-[5-Chloro-2-(5,6-dihydro-4H-3,10b-diaza-benzo[e]azulen-9-ylamino)-pyrimidin-4-ylamino]-4-methyl-thiophene-2-carboxylic acid methylamide]	> 7.00	6.00 to 7.00
CNC(=O)c1cccc(Cl)c1Nc1nc(Nc2ccc3c(c2)-n2ccnc2CCC3)ncc1Cl [Example 1839, 2-[5-Chloro-2-(5,6-dihydro-4H-3,10b-diaza-benzo[e]azulen-9-ylamino)-pyrimidin-4-ylamino]-3-chloro-N-methyl-benzamide]	6.00 to 7.00	5.00 to 6.00
CNC(=O)c1sccc1Nc1nc(Nc2ccc3c(c2)-n2ccnc2CCC3)ncc1Cl [Example 1840, 3-[5-Chloro-2-(5,6-dihydro-4H-3,10b-diaza-benzo[e]azulen-9-ylamino)-pyrimidin-4-ylamino]-thiophene-2-carboxylic acid methylamide]	6.00 to 7.00	6.00 to 7.00
CNC(=O)c1cc(F)ccc1Nc1nc(Nc2ccc3c(c2)-n2ccnc2CCC3)ncc1Cl [Example 1841, 2-[5-Chloro-2-(5,6-dihydro-4H-3,10b-diaza-benzo[e]azulen-9-ylamino)-pyrimidin-4-ylamino]-5-fluoro-N-methyl-benzamide]	6.00 to 7.00	5.00 to 6.00
CC(C)S(=O)(=O)c1cccc(F)c1Nc1nc(Nc2ccc3c(c2)-n2ccnc2CCC3)ncc1Cl [Example 1842, 5-Chloro-N*2*-(5,6-dihydro-4H-3,10b-diaza-benzo[e]azulen-9-yl)-N*4*-[2-fluoro-6-(propane-2-sulfonyl)-phenyl]-pyrimidine-2,4-diamine]	> 7.00	> 7.00
CNC(=O)c1cccc(F)c1Nc1nc(Nc2ccc3c(c2)-n2c(C)cnc2CCC3)ncc1Cl [Example 1843, 2-[5-Chloro-2-(1-methyl-5,6-dihydro-4H-3,10b-diaza-benzo[e]azulen-9-ylamino)-pyrimidin-4-ylamino]-3-fluoro-N-methyl-benzamide]	5.00 to 6.00	6.00 to 7.00
CNC(=O)c1cccc(F)c1Nc1nc(Nc2ccc3c(c2)-c2nccn2CCC3)ncc1Cl [Example 1844, 2-[5-Chloro-2-(5,6-dihydro-4H-1,3a-diaza-benzo[e]azulen-9-ylamino)-pyrimidin-4-ylamino]-3-fluoro-N-methyl-benzamide]	> 7.00	> 7.00
CNC(=O)c1cccc(Cl)c1Nc1nc(Nc2ccc3c(c2)-c2nccn2CCC3)ncc1Cl [Example 1845, 2-[5-Chloro-2-(5,6-dihydro-4H-1,3a-diaza-benzo[e]azulen-9-ylamino)-pyrimidin-4-ylamino]-3-chloro-N-methyl-benzamide]	6.00 to 7.00	6.00 to 7.00
CNC(=O)c1scc(C)c1Nc1nc(Nc2ccc3c(c2)-c2nccn2CCC3)ncc1Cl [Example 1846, 3-[5-Chloro-2-(5,6-dihydro-4H-1,3a-diaza-benzo[e]azulen-9-ylamino)-pyrimidin-4-ylamino]-4-methyl-thiophene-2-carboxylic acid methylamide]	6.00 to 7.00	5.00 to 6.00
CNC(=O)c1cc(F)ccc1Nc1nc(Nc2ccc3c(c2)-c2nccn2CCC3)ncc1Cl [Example 1847, 2-[5-Chloro-2-(5,6-dihydro-4H-1,3a-diaza-benzo[e]azulen-9-ylamino)-pyrimidin-4-ylamino]-5-fluoro-N-methyl-benzamide]	6.00 to 7.00	5.00 to 6.00
CNC(=O)c1cccc(F)c1Nc1nc(Nc2ccc3c(c2)NC(=O)CN(C(C)=O)C3)ncc1Cl [Example 1848, 2-[2-(4-Acetyl-2-oxo-2,3,4,5-tetrahydro-1H-benzo[e][1,4]diazepin-8-ylamino)-5-chloro-pyrimidin-4-ylamino]-3-fluoro-N-methyl-benzamide]	6.00 to 7.00	6.00 to 7.00
CNC(=O)c1sccc1Nc1nc(Nc2ccc3c(c2)NC(=O)CN(C(C)=O)C3)ncc1Cl [Example 1849, 3-[2-(4-Acetyl-2-oxo-2,3,4,5-tetrahydro-1H-benzo[e][1,4]diazepin-8-ylamino)-5-chloro-pyrimidin-4-ylamino]-thiophene-2-carboxylic acid methyl amide]	> 7.00	6.00 to 7.00
CNC(=O)c1scc(C)c1Nc1nc(Nc2ccc3c(c2)NC(=O)CN(C(C)=O)C3)ncc1Cl [Example 1850, 3-[2-(4-Acetyl-2-oxo-2,3,4,5-tetrahydro-1H-benzo[e][1,4]diazepin-8-ylamino)-5-chloro-pyrimidin-4-ylamino]-4-methyl-thiophene-2-carboxylic acid methylamide]	6.00 to 7.00	6.00 to 7.00
